Measurements published in patent publication US20210369740A1, “Synthesis of Anti-inflammatory and Anti-cancer Agents through Fungal Transformation of Mibolerone” (priority 2021, published 2021).
Structures can show the parent of a compound that is named as a salt. Where two headings read alike, the source gives them in different places.

Assays:
[1] = Cytotoxicity against BJ normal cell line; settings: human, BJ normal human fibroblast cells
[2] = biological target: T1, human placental aromatase enzyme (Homo sapiens, UniProt P11511); test: Human placental aromatase inhibition assay; assay type: biochemical
T1 construct: from tissue; host or cells: human placenta
T1 sequence (P11511 1-503): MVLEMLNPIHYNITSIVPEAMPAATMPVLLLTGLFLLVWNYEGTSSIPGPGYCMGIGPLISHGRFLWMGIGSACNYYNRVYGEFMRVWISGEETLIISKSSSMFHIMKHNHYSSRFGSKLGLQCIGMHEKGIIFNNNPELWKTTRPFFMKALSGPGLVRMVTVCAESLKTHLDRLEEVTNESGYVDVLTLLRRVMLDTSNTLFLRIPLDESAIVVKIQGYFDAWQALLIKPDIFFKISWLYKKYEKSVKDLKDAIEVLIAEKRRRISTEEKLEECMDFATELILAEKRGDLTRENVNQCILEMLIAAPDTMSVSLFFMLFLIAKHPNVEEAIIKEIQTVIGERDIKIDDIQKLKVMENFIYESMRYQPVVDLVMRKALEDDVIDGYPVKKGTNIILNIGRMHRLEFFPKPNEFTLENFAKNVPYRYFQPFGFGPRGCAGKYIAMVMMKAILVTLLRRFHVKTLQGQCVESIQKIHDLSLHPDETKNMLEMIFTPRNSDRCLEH

T-cell proliferation = test: T-Lymphocyte proliferation assay (PHA-activated PBMCs, Alamar blue); assay type: cell-based; settings: human PBMC T-cells activated with phytohemagglutinin-L, 48 h, in vitro; for IC50: T-cell, read-out: IC50 against T-cell proliferation
[3] = system: nitric oxide (NO) production; test: Nitric oxide assay (LPS-induced J774.2 macrophages, Griess method); assay type: cell-based, mouse
TNF-α production = test: Cytokine inhibition assay (TNF-α by ELISA in LPS-stimulated, PMA-differentiated THP-1 cells); assay type: cell-based, human; settings: for IC50: Homo sapiens, read-out: IC50 against TNF-α production
[4] = J774.2 mouse macrophages, LPS-induced, in vitro, read-out: IC50 against nitric oxide (NO) production
[5] = THP-1 cells differentiated with PMA, LPS-stimulated, 4 h, in vitro
[6] = testosterone to 17β-estradiol conversion, in vitro, read-out: IC50 against human placental aromatase enzyme
[7] = Mus musculus, J774.2, read-out: IC50 against nitric oxide (NO) production

Compound	IC50 (T-cell proliferation) [µM]	IC50 [3, 4] [µM]	IC50 [2, 6] [µM]	IC50 against TNF-α production (TNF-α production; [5])	further results
C[C@@H]1CC2=CC(=O)CC[C@@H]2[C@H]2CC[C@@]3(C)[C@@H](CC[C@]3(C)O)[C@@H]21 [Compound 1, Mibolerone]	6.55 ± 0.6	46 ± 2.4			IC50 [1]: 80 ± 2.1 µM; IC50 [2]: 0.372 ± 0.009 µM; IC50 (TNF-α production; [5]): 115.8 ± 0.7 µM
CC1=CC2=CC(=O)CC[C@@H]2[C@H]2CC[C@@]3(C)[C@@H](CC[C@]3(C)O)[C@H]12 [Compound 2, 17β-hydroxy-7α,17α-dimethylestr-4,6-diene-3-one]	3.83 ± 0.3	54.4 ± 0.3	0.31 ± 0.028	inactive	
C[C@@H]1Cc2cc(O)ccc2[C@@H]2[C@@H]1[C@@H]1CC[C@](C)(O)[C@@]1(C)C[C@@H]2O [Compound 3, 11β,17β-dihydroxy-7α,17α-dimethyl-estra-1,3,5-triene-3-one]	4.24 ± 0.2		0.317 ± 0.012	inactive	IC50 [3, 7]: 49.1 ± 0.4 µM
C[C@@H]1C[C@H]2C[C@H](O)CC[C@]2(O)[C@H]2CC[C@@]3(C)[C@@H](CC[C@]3(C)O)[C@H]12 [Compound 4, 3α,10β,17β-trihydroxy-7α,17α-dimethyl-5α-estrane]			0.072 ± 0.001		IC50 against T-cell proliferation (T-cell proliferation): inactive; IC50 [3, 7]: 58 ± 0.1 µM; IC50 (TNF-α production; THP-1, 4 h): 28.5 ± 0.07 µM
C[C@@H]1C(=O)C2CC(=O)CC[C@@H]2[C@H]2CC[C@@]3(C)[C@@H](CC[C@]3(C)O)[C@@H]21 (stereo partly drawn) [Compound 5, 17β-hydroxy-7α,17α-dimethyl-5α-estrane-3,6-dione]		52.7 ± 0.3		inactive	IC50 against human placental aromatase enzyme ([2]; testosterone to 17β-estradiol conversion, in vitro): inactive; IC50 against T-cell proliferation (T-cell proliferation): inactive
CNC(=N)NCCC[C@H](N)C(=O)O [L-NMMA, NG-Monomethyl-L-arginine, monoacetate salt, reference compound]		128.2 ± 0.8			
CC(=O)CCCCn1c(=O)c2c(ncn2C)n(C)c1=O [pentoxifylline, reference compound]					IC50 (TNF-α production; THP-1, 4 h): 341 ± 2.1 µM
C[C@]12C=CC(=O)C=C1CC[C@@H]1[C@@H]2[C@@H](O)C[C@@]2(C)[C@H]1CC[C@]2(O)C(=O)CO [prednisolone, reference compound]	9.75 ± 0.03				
